Test results reported in the supplement of paper PMC10307832.

What was measured:
Assay in all cases: relative viability (nuclei count vs DMSO), 5 days (fraction); higher = more cells survive
[1] = compound: COc1cc(N2CCC(N3CCN(C)CC3)CC2)ccc1Nc1ncc(Cl)c(Nc2ccccc2S(=O)(=O)C(C)C)n1 [NVP-TAE684] + Nc1ncn([C@H]2C[C@H](O)[C@@H](CO)O2)c(=O)n1 [Decitabine] (partner 2 µM)
How it was run: (§1)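 For relative viability, nuclei counts in treated wells were divided by those in vehicle wells. Lung cancer cell lines had been pin-tool dosed in 1536-well plates the day after seeding and cultured for 5 days, then fixed and stained in one step (final 0.05% Triton X-100, 1% formaldehyde, 1 ug/ml Hoechst) and imaged at 4×. Doses were one drug alone or a fixed anchor-drug dose plus five library-drug doses (not always all listed) in √10 steps, and values are duplicate-plate medians.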

[2] = compound: C1=CC=C2C(=C1)N=C(S2)C(C#N)C3=NC(=NC=C3)NCCC4=CN=CC=C4 + COc1cccc2cc(-c3nc([C@H]4CC[C@H](C(=O)O)CC4)n4ncnc(N)c34)[nH]c12 [OSI-027] (partner 0.5 µM)
How it was run: as §1

[3] = compound: COc1cc2/c(=N/c3ccc(Br)cc3F)nc[nH]c2cc1OCC1CCN(C)CC1 [Vandetanib] + Nc1nc2[nH]cc(CCc3ccc(C(=O)N[C@@H](CCC(=O)O)C(=O)O)cc3)c2c(=O)[nH]1 [Pemetrexed] (partner 0.2 µM)
How it was run: as §1

[4] = compound: COc1cc2/c(=N/c3ccc(Br)cc3F)nc[nH]c2cc1OCC1CCN(C)CC1 [Vandetanib] + COc1cc2c(Oc3ccc(NC(=O)C4(C(=O)Nc5ccc(F)cc5)CC4)cc3F)ccnc2cc1OCCCN1CCOCC1 [Foretinib] (partner 0.25 µM)
How it was run: as §1

Cell Line	relative viability ([1]; first compound 0.2 µM)	relative viability ([1]; first compound 0.6325 µM)	relative viability ([1]; first compound 2 µM)	relative viability ([2]; first compound 0.01581 µM)	relative viability ([2]; first compound 0.05 µM)	relative viability ([2]; first compound 0.1581 µM)	relative viability ([2]; first compound 0.5 µM)	relative viability ([3]; first compound 0.02 µM)	relative viability ([3]; first compound 0.06325 µM)	relative viability ([3]; first compound 0.2 µM)	relative viability ([3]; first compound 0.6325 µM)	relative viability ([3]; first compound 2 µM)	relative viability ([4]; first compound 0.02 µM)	relative viability ([4]; first compound 0.06325 µM)	relative viability ([4]; first compound 0.2 µM)	relative viability ([4]; first compound 0.6325 µM)	relative viability ([4]; first compound 2 µM)	relative viability ([2]; first compound 0.005 µM)
NCI-H441	0.235	0.279	0.232	0.669	0.556	0.719	0.487	0.252	0.269	0.27	0.263	0.263	1.05	0.816	0.264	0.978	1.01	
NCI-H460	0.535	0.51	0.294	0.735	0.67	0.727	0.238	0.0623	0.0604	0.0622	0.0619	0.0589	0.934	0.992	0.952	0.953	0.997	0.281
NCI-H520	0.508	0.45	0.267	0.261	0.222	0.32	0.272	0.705	0.646	0.607	0.783	0.679	0.623	0.682	0.194	0.754	0.806	0.199
NCI-H596	1	1.08	0.989	0.682	0.595	0.826	0.674	0.476	0.565	0.427	0.52	0.469	0.918	0.785	0.741	0.838	0.731	0.541
NCI-H647	0.388	0.386	0.261	0.585	0.491	0.756	0.527	0.185	0.152	0.182	0.153	0.175	1.17	1.2	0.259	1.35	1.21	0.638
NCI-H650	0.306	0.329	0.276		0.544	0.475	0.486	0.844	0.801	0.869	0.964	0.873	1.04	1.03		1.02	0.98	0.521
NCI-H661	0.584	0.495	0.508	0.687	0.689	0.748	0.682	0.882	0.938	0.98	0.907	0.907	0.972	0.997	0.999	1.07	0.847	0.638
NCI-H838	0.456	0.464	0.314	0.351	0.361	0.459	0.396	0.242	0.243	0.251	0.232	0.237	1.08	1.01	0.282	1.06	1.05	0.4
NCI-H1355	0.372	0.383	0.31	0.348	0.341	0.411	0.369	1.03	0.994	1.05	0.985	1.06	0.94	0.981	1	0.936	0.946	0.402
NCI-H1395	0.682	0.712	0.616	0.515	0.569	0.843	0.658	0.917	0.902	0.746	0.842	0.612	0.969	1.02	1.02	0.972	0.998	0.606
NCI-H1437	0.596	0.548	0.474	0.817	0.93	0.917	0.723	0.308	0.306	0.307	0.319	0.304	1.26	1.25	0.271	1.35	1.19	0.855
NCI-H1650	0.399	0.411	0.343	0.56	0.611	0.689	0.354	0.374	0.315	0.404	0.371	0.392	1.28	0.693	0.224	0.753	0.641	0.557
NCI-H1651	0.614	0.566	0.502	0.672	0.72	0.939	0.674	0.579	0.583	0.555	0.5	0.505	0.938	0.721	0.13	0.786	0.708	0.69
NCI-H1666	0.71	0.732	0.597	0.839	0.804	0.849	0.812	0.793	0.879	0.881	0.803	0.874	0.908	0.947	0.439	0.93	0.786	0.776
NCI-H1734	0.466	0.347	0.432	0.571	0.546	0.669	0.556	0.4	0.388	0.41	0.404	0.467	0.825	0.913	0.169	0.903	0.771	
NCI-H1755	0.715	0.756	0.667	0.733	0.727	0.745	0.67	0.396	0.53	0.464	0.482	0.451	0.9	0.884	0.9	0.956	0.868	0.709
NCI-H1793	0.459	0.468	0.361	0.303	0.215	0.261	0.245	1.02	0.779	0.772	0.711	0.744	0.605	0.606	0.406	0.648	0.41	0.276
NCI-H1915	0.284	0.263	0.257	0.583	0.619	0.671	0.584	0.496	0.509	0.523	0.505	0.477	1.08	1.11	1.11	1.08	1.06	0.623
NCI-H1944	0.437	0.519	0.413	0.343	0.417	0.513	0.359	0.615	0.566	0.682	0.564	0.58	0.895	0.887	0.904	0.813	0.783	0.396
NCI-H1975	0.401	0.389	0.36	0.819	0.613	0.811	0.283	0.296	0.275	0.268	0.285	0.306	0.908	0.901	0.136	0.842	0.912	0.511
NCI-H1993	0.618	0.629	0.501	0.555	0.637	0.626	0.585	0.629	0.55	0.707	0.515	0.598	0.836	0.78	0.557	0.788	0.64	0.579
NCI-H2009	0.372	0.34	0.345	0.547	0.564	0.726	0.603	1.02	1.14	0.99	0.986	1.05	1.26	1.14	0.197	1.27	1.22	0.649
NCI-H2023	0.238	0.199	0.0999	0.418	0.31	0.355	0.275	0.182	0.197		0.202	0.252	0.852	0.824	0.0955	0.591	0.431	0.285
NCI-H2085	0.533	0.458	0.458	0.738	0.57	0.931	0.663	1.02	0.786	0.776	0.765	0.767	0.935	0.852	0.351	0.993	0.836	0.675
NCI-H2087	0.305	0.261	0.192	0.629	0.495	0.548	0.483	0.661	0.64	0.619	0.641	0.623	1.15	0.886	0.181	1.38	1.11	0.557
NCI-H2126	0.56	0.603	0.459	0.676	0.732	0.705	0.677	0.658	0.632	0.715	0.669	0.651	1.17	1.16	1.11	1.14	1.11	0.739
NCI-H2170	0.472	0.477	0.418	0.653	0.718	0.698	0.706	0.278	0.249	0.265	0.262	0.268	1.04	0.57	1.06	0.978	1.03	0.687
NCI-H2342	0.727	0.835	0.632	0.64	0.569	0.671	0.578	0.728	0.832	0.77	0.801	0.668	1.08	1.01	1.14	1.17	0.923	0.532
NCI-H2347	0.602	0.679	0.571	0.394	0.39	0.58	0.408	0.433	0.393	0.443	0.443	0.427	1.01		0.789	1.02	0.553	0.454
